Test results taken from ChEMBL document CHEMBL1135887, “Substituted pentacyclic carbazolones as novel muscarinic allosteric agents: synthesis and structure-affinity and cooperativity relationships” (J Med Chem, 2002).

Experiments:
[1] = target: T1, Muscarinic acetylcholine receptor M4 (Homo sapiens) (UniProt P08173); test: Logarithm of affinity (log 1/M) at the muscarinic acetylcholine receptor M4 by using semiquantitative equilibrium and off-rate assay
T1 sequence (whole entry): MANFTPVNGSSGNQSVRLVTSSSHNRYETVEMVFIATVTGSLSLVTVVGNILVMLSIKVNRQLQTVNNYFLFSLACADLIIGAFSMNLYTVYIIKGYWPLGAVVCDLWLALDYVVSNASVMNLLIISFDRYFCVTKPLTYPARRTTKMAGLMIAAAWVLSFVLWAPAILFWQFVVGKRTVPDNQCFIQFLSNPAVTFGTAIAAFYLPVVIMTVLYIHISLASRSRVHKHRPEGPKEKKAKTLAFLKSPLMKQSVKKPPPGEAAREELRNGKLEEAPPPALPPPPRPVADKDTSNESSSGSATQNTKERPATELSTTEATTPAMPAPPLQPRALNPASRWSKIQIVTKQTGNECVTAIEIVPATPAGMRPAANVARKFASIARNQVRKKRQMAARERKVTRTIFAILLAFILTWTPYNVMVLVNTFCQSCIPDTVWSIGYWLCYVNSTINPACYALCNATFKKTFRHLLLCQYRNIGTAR

[2] = target: T2, Muscarinic acetylcholine receptor M1 (Homo sapiens) (UniProt P11229); test: Subtype selectivity and the cooperativity with N-methyl Scopolamine (NMS) at Muscarinic acetylcholine receptor M1; Activity range is 0.2-0.8
T2 sequence (whole entry): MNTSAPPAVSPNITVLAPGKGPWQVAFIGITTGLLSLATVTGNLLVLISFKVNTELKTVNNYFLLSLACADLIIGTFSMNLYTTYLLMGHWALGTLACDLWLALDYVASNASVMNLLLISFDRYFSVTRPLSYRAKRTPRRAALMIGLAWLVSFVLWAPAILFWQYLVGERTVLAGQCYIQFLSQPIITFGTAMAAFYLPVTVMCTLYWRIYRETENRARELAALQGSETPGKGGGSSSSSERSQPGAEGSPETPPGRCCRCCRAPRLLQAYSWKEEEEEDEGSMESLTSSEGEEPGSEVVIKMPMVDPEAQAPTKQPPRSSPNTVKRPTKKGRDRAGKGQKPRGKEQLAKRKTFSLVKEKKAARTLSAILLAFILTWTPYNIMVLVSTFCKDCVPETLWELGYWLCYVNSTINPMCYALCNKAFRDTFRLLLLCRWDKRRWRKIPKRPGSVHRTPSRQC

[3] = target: T3, Muscarinic acetylcholine receptor M2 (Homo sapiens) (UniProt P08172); test: Logarithm of affinity (log 1/M) at the (N-methyl Scopolamine) NMS-liganded muscarinic acetylcholine receptor M2 by using semiquantitative equilibrium and off-rate assay
T3 sequence (whole entry): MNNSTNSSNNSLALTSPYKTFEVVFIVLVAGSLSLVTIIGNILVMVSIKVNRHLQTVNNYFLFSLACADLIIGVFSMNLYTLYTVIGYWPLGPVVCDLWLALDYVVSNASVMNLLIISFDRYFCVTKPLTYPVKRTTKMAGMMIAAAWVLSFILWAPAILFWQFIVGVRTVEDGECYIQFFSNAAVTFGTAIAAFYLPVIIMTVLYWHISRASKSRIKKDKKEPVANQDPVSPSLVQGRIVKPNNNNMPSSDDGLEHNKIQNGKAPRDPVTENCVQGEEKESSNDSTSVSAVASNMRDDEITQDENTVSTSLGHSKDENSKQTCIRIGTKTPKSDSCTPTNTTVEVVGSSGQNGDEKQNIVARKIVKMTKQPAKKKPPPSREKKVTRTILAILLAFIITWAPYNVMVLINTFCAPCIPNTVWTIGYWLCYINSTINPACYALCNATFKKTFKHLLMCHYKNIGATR

[4] = target: Muscarinic acetylcholine receptor M3 (Homo sapiens) (UniProt P20309); test: Subtype selectivity and the cooperativity with N-methyl Scopolamine (NMS) at muscarinic acetylcholine receptor M3; Activity range is 0.2-0.8
[5] = target: Muscarinic acetylcholine receptor M3 (Homo sapiens) (UniProt P20309); test: Logarithm of affinity (log 1/M) at the (N-methyl Scopolamine) NMS-liganded muscarinic acetylcholine receptor M3 by using semiquantitative equilibrium and off-rate assay
[6] = target: T1, Muscarinic acetylcholine receptor M4 (Homo sapiens); test: Subtype selectivity and the cooperativity with N-methyl Scopolamine (NMS) at Muscarinic acetylcholine receptor M4; Activity range is 0.2-0.8
[7] = target: Muscarinic acetylcholine receptor M3 (Homo sapiens) (UniProt P20309); test: Logarithm of affinity (log 1/M) at the muscarinic acetylcholine receptor M3 by using semiquantitative equilibrium and off-rate assay
[8] = target: T2, Muscarinic acetylcholine receptor M1 (Homo sapiens); test: Logarithm of affinity (log 1/M) at the (N-methyl Scopolamine) NMS-liganded muscarinic acetylcholine receptor M1 by using semiquantitative equilibrium and off-rate assay
[9] = target: T2, Muscarinic acetylcholine receptor M1 (Homo sapiens); test: Logarithm of affinity (log 1/M) at the free muscarinic acetylcholine receptor M1 by using semiquantitative equilibrium and off-rate assay
[10] = target: T1, Muscarinic acetylcholine receptor M4 (Homo sapiens); test: Logarithm of affinity (log 1/M) at the (N-methyl Scopolamine) NMS-liganded muscarinic acetylcholine receptor M4 by using semiquantitative equilibrium and off-rate assay
[11] = target: T3, Muscarinic acetylcholine receptor M2 (Homo sapiens); test: Subtype selectivity and the cooperativity with N-methyl Scopolamine (NMS) at Muscarinic acetylcholine receptor M2; Activity range is 1.2-3
[12] = target: T3, Muscarinic acetylcholine receptor M2 (Homo sapiens); test: Logarithm of affinity (log 1/M) at the muscarinic acetylcholine receptor M2 by using semiquantitative equilibrium and off-rate assay
[13] = target: T1, Muscarinic acetylcholine receptor M4 (Homo sapiens); test: Subtype selectivity and the cooperativity with N-methyl Scopolamine (NMS) at Muscarinic acetylcholine receptor M4
[14] = target: T3, Muscarinic acetylcholine receptor M2 (Homo sapiens); test: Subtype selectivity and the cooperativity with N-methyl Scopolamine (NMS) at Muscarinic acetylcholine receptor M2
[15] = target: Muscarinic acetylcholine receptor M3 (Homo sapiens) (UniProt P20309); test: Subtype selectivity and the cooperativity with N-methyl Scopolamine (NMS) at Muscarinic acetylcholine receptor M3; […]
[16] = target: T2, Muscarinic acetylcholine receptor M1 (Homo sapiens); test: Subtype selectivity and the cooperativity with N-methyl Scopolamine (NMS) at Muscarinic acetylcholine receptor M1
[17] = target: T2, Muscarinic acetylcholine receptor M1 (Homo sapiens); test: Subtype selectivity and the cooperativity with N-methyl Scopolamine (NMS) at Muscarinic acetylcholine receptor M1; Activity range is 1.2-3
[18] = target: T1, Muscarinic acetylcholine receptor M4 (Homo sapiens); test: Subtype selectivity and cooperativity with N-methyl Scopolamine (NMS) at Muscarinic acetylcholine receptor M4; Activity range is 1.2-3
[19] = target: T1, Muscarinic acetylcholine receptor M4 (Homo sapiens); test: Subtype selectivity and the cooperativity with N-methyl Scopolamine (NMS) at Muscarinic acetylcholine receptor M4; Activity range is 0.81-1.19

Muscarinic acetylcholine receptor M3 (Homo sapiens), sequence (P20309 whole entry, looked up): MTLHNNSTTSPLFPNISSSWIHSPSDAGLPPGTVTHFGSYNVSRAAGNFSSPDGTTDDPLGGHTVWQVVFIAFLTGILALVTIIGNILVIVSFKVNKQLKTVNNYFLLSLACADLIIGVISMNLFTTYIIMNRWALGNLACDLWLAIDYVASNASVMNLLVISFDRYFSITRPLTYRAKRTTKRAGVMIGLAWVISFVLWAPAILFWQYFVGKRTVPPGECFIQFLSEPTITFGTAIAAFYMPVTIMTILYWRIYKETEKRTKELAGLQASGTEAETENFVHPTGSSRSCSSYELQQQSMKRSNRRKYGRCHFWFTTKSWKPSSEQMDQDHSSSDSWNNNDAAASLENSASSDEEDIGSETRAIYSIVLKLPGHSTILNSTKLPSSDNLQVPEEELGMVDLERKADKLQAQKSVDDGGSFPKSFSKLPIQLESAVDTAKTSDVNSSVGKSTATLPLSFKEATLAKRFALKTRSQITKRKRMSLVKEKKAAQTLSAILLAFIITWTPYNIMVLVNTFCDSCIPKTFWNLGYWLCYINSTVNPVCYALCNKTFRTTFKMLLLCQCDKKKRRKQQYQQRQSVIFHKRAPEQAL

Compound | Log 1/M [1] | Cooperativity [2] | Log 1/M [3] | Cooperativity [4] | Log 1/M [5] | Cooperativity [6] | Log 1/M [7] | Log 1/M [8] | Log 1/M [9] | Log 1/M [10] | Cooperativity [11] | Log 1/M [12] | Cooperativity [13] | Cooperativity [14] | Cooperativity [15] | Cooperativity [16] | Cooperativity [17] | Cooperativity [18] | Cooperativity [19]
COc1ccc2c3c4c(cc5c3n(c2c1)C(=O)CC5)CNCC4 | 4.64 | – | 6.35 | 0.8 | 5.2 | – | 5.33 | 6.07 | 5.84 | 6.14 | 3 | 5.9 | – | – | – | – | 3 | 3 | –
COc1cccc2c1c1c3c(cc4c1n2C(=O)CC4(C)C)CNCC3 | 5.94 | 0.8 | 6.16 | 0.8 | 4.83 | – | 4.92 | 5.54 | 6.65 | 5.79 | 3 | 6.21 | – | – | – | – | – | – | 1.19
COC(=O)c1c2c(c3c4cc(OC)c(OC)cc4n4c3c1CCC4=O)CCNC2 | 5.86 | 0.8 | 6.37 | 0.8 | 4.9 | – | 5.11 | 6.05 | 5.97 | 5.96 | 3 | 6.22 | – | – | – | – | – | 3 | –
O=C1CCc2cc3c(c4c5cc(CN6CCOCC6)ccc5n1c24)CCNC3 | 6.12 | 0.8 | 5.79 | 0.8 | 3.93 | – | 4.56 | 5.35 | 5.47 | 5.35 | 3 | 5.53 | – | – | – | – | – | – | 1.19
COC(=O)c1cccc2c1c1c3c(cc4c1n2C(=O)CC4)CNCC3 | 5.6 | 0.8 | 5.82 | 0.8 | 4.78 | 0.8 | 4.98 | 5.34 | 5.47 | 5.58 | 3 | 5.5 | – | – | – | – | – | – | –
CC1(C)CC(=O)n2c3ccccc3c3c4c(cc1c32)CCNC4 | 5.42 | – | 5.87 | 0.8 | 4.56 | – | 4.86 | 5.69 | 5.6 | 5.8 | 3 | 5.69 | – | – | – | – | 3 | 3 | –
O=C1CCc2cc3c(c4c5ccccc5n1c24)CNCC3 | 5.31 | 0.8 | 5.57 | 0.8 | 4.69 | – | 5.78 | 5.7 | 5.85 | 5.48 | 3 | 5.51 | – | – | – | – | – | 3 | –

Other lines, results leading:

Log 1/M [1] | Cooperativity [2] | Log 1/M [3] | Cooperativity [4] | Log 1/M [5] | Cooperativity [6] | Log 1/M [7] | Log 1/M [8] | Log 1/M [9] | Log 1/M [10] | Cooperativity [11] | Log 1/M [12] | Cooperativity [13] | Cooperativity [14] | Cooperativity [15] | Cooperativity [16] | Cooperativity [17] | Cooperativity [18] | Cooperativity [19] | Compound
5.43 | 0.8 | 5.67 | 0.8 | 4.37 | 0.8 | 5.06 | 5.38 | 5.49 | 5.25 | 3 | 5.36 | – | – | – | – | – | – | – | O=C1CCc2cc3c(c4c5cccc(O)c5n1c24)CCNC3
5.6 | – | 6.28 | – | 5.27 | – | 5.43 | 6.11 | 5.84 | 6.13 | – | 5.99 | > 3 | > 3 | 1.19 | > 3 | – | – | – | O=C1CCc2cc3c(c4c5c(O)cccc5n1c24)CCNC3
6.26 | – | 7.12 | – | 6.05 | – | 5.92 | 6.58 | 6.24 | 6.66 | – | 6.6 | – | > 3 | 1.19 | – | 3 | 3 | – | O=C1CCc2cc3c(c4c5c(Cl)cccc5n1c24)CCNC3
5.97 | 0.8 | 5.55 | 0.8 | 4.75 | – | 5.06 | 5.07 | 5.4 | 5.11 | 3 | 5.19 | – | – | – | – | – | 3 | – | COc1cccc2c3c4c(cc5c3n(c12)C(=O)CC5)CNCC4
5.38 | 0.8 | 5.34 | – | 5.29 | – | 5.23 | 5.62 | 6.01 | 5.36 | 3 | 5.24 | – | – | 1.19 | – | – | 3 | – | O=C1CCc2cc3c(c4c5ccc(O)cc5n1c24)CCNC3
5.6 | 0.8 | 6.15 | 0.8 | 4.54 | – | 5.04 | 5.23 | 5.78 | 5.57 | 3 | 5.96 | – | – | – | – | – | – | 1.19 | COc1ccc2c(c1)c1c3c(cc4c1n2C(=O)CC4)CNCC3
5.39 | 0.8 | 5.6 | 0.8 | 3.94 | – | 4.51 | 4.57 | 5.43 | 5.32 | – | 5.31 | > 3 | > 3 | – | – | – | – | – | O=C(O)c1ccc2c(c1)c1c3c(cc4c1n2C(=O)CC4)CNCC3
5.61 | – | 6.81 | – | 5.48 | – | 5.39 | 6.51 | 6.06 | 6.47 | 3 | 6.46 | > 3 | – | 1.19 | – | 3 | – | – | O=C1CCc2cc3c(c4c5ccc(Cl)cc5n1c24)CCNC3
4.99 | – | 5.49 | 0.8 | 4.64 | – | 4.88 | 5.49 | 5.49 | 5.37 | 3 | 5.31 | – | – | – | – | 3 | 3 | – | O=C1CCc2cc3c(c4c5ccccc5n1c24)CCNC3
6.26 | 0.8 | 6.47 | 0.8 | 5.08 | – | 5.71 | 5.69 | 5.9 | 5.97 | 3 | 6.09 | – | – | – | – | – | 3 | – | Cc1ccc2c(c1)c1c3c(cc4c1n2C(=O)CC4)CNCC3
